According to PMC9585581, “Developing Photoaffinity Probes for Dopamine Receptor D2 to Determine Targets of Parkinson’s Disease Drugs” (ACS Chemical Neuroscience, 2022):

System: DRD2-expressing cell line (DRD2-Strep Tag II fusion HEK293T)
Assay: Colocalization analysis via confocal microscopy of photo-cross-linked, dye-clicked probe in cells
Type: cell-based, human
Details: probe 5 μM, Alexa Fluor 555 azide clicked
Experimental: After the biochemical characterization of the dynamic interaction between the probe and target, we set out to characterize the static interaction: colocalization of probe and receptor in cells, with an emphasis on both on- and off-target labeling. Specifically, due to the known propensity for photo-cross-linking groups to nonspecifically label, we wanted a holistic view of how the probes interacted with whole cells. Thus, we treated our DRD2-expressing cell line with a 5 μM solution of the probe, photo-cross-linked, “clicked” on an azido fluorophore, and labeled the DRD2 receptor via an antibody conjugated to a complementary fluorophore (Figure 4a). Our results (Figure 4b) indicate that there is indeed background labeling with the probes. […] We therefore proceeded to quantify the specific vs nonspecific binding of the probe.
Figure 4 Photo-cross-linking of dye-clicked probe: confocal microscopy. (a) Schematic of the methodology used in the labeling process. […]
HEK293T cells and a stable HEK293T-derived cell line-expressing DRD2-Strep Tag II fusion were maintained in DMEM supplemented with 10% FBS, 100 U/mL penicillin, and 100 μg/mL streptomycin in a humidified atmosphere at 37 °C in 5% CO2. […] The cells were then washed 3 times with TBS and imaged for Alexa Fluor 488 fluorescence and AF555 fluorescence using a Zeiss LSM 980 with Airyscan 2. […]

SMILES	labeling of DRD2-expressing cells (confocal microscopy)
C#CCOc1ccc(C(=O)c2ccc(CNCCc3cccc4c3CC(=O)N4)cc2)cc1 [Compound 5, 4-(2-((4-(4-(Prop-2-yn-1-yloxy)benzoyl)benzyl)amino)ethyl)indolin-2-one]	higher avidity relative to the other probes
C#CCOc1ccc(C(=O)c2ccc(CN[C@H]3CCc4nc(N)sc4C3)cc2)cc1 [Compound 7, (S)-(4-(((2-Amino-4,5,6,7-tetrahydrobenzo[d]thiazol-6-yl)amino)methyl)phenyl)(4-(prop-2-yn-1-yloxy)phenyl)methanone]	higher avidity relative to the other probes
